Read-outs that look alike come from different tables or passages of the source.
Assay: Capivasertib exposure metrics at steady state projected with PopPK model, patients with solid tumors
Type: in vivo
Conditions: human, plasma, oral; for concentration at 12 h: read-out: Cmin
Protocol: Study 1 (NCT01226316) was a phase 1 open-label multipart study. […] The duration of the treatment cycles was 21 days. […] [18]. […] [18, 25, 39].
Study 4 (NCT01353781) was a phase 1 dose-escalation study in Japanese patients with advanced solid malignancies.
The exposure–response analyses were conducted using a subset of patients from the PopPK analysis where capivasertib was used as monotherapy. […] As different schedules were assessed between and within studies, the exposure metrics were derived for the last dose of the last dosing day in the second week of treatment (i.e. on days 14, 11, and 9 for the continuous, [4/3] and [2/5] schedules, respectively), to ensure SS conditions, using the planned dose. […] The relative dose intensity (RDI) was calculated as the percentage of the average weekly dose relative to the PWD to examine the tolerability of capivasertib monotherapy at the given dosing schedules.

[1] = 80 mg, Study 1, Continuous BID, PWD 1120 mg, N=5, median (range)
[2] = 80 mg, Study 4 (Japanese patients), Continuous BID, PWD 1120 mg, N=3, median (range)
[3] = 240 mg, Study 4 (Japanese patients), Continuous BID, PWD 3360 mg, N=7, median (range)
[4] = 320 mg, Study 4 (Japanese patients), Continuous BID, PWD 4480 mg, N=6, median (range)
[5] = 360 mg, Study 4 (Japanese patients), [4/3] BID, PWD 2880 mg, N=8, median (range)
[6] = 400 mg, Study 4 (Japanese patients), Continuous BID, PWD 5600 mg, N=5, median (range)
[7] = 480 mg, OAK, [4/3] BID, PWD 3840 mg, N=30, median (range)
[8] = 480 mg, Study 1, [4/3] BID, PWD 3840 mg, N=127, median (range)
[9] = 480 mg, Study 4 (Japanese patients), [4/3] BID, PWD 3840 mg, N=6, median (range)

NC1(C(=O)N[C@@H](CCO)c2ccc(Cl)cc2)CCN(c2ncnc3[nH]ccc23)CC1 [capivasertib, 4-amino-N-[(1S)-1-(4-chlorophenyl)-3-hydroxypropyl]-1-(7H-pyrrolo[2,3-d]pyrimidin– 4-yl)piperidine-4-carboxamide]
AUC (80 mg, Study 1, Continuous BID, 80 mg, PWD 1120 mg, N=5, median (range), read-out: AUCss(0–12 h)): 870 ng·h/mL | concentration at 12 h (80 mg, Study 1, Continuous BID, 80 mg, PWD 1120 mg, N=5, median (range)): 30 ng/mL | AUC at 1 week [1]: 12200 ng·h/mL | Cmax [1]: 150 ng/mL | AUC (80 mg, Study 4 (Japanese patients), Continuous BID, 80 mg, PWD 1120 mg, N=3, median (range), read-out: AUCss(0–12 h)): 1480 ng·h/mL | concentration at 12 h (80 mg, Study 4 (Japanese patients), Continuous BID, 80 mg, PWD 1120 mg, N=3, median (range)): 60 ng/mL | AUC at 1 week [2]: 20700 ng·h/mL | Cmax [2]: 220 ng/mL | AUC (160 mg, Study 1, Continuous BID, 160 mg, PWD 2240 mg, N=5, median (range), read-out: AUCPWD): 41800 ng·h/mL | AUC (160 mg, Study 1, Continuous BID, 160 mg, PWD 2240 mg, N=5, median (range), read-out: AUCss(0–12 h)): 2990 ng·h/mL | concentration at 12 h (160 mg, Study 1, Continuous BID, 160 mg, PWD 2240 mg, N=5, median (range)): 110 ng/mL | Cmax (160 mg, Study 1, Continuous BID, PWD 2240 mg, N=5, median (range)): 420 ng/mL | AUC (240 mg, Study 1, Continuous BID, 240 mg, PWD 3360 mg, N=6, median (range), read-out: AUCPWD): 44700 ng·h/mL | AUC (240 mg, Study 1, Continuous BID, 240 mg, PWD 3360 mg, N=6, median (range), read-out: AUCss(0–12 h)): 3190 ng·h/mL | concentration at 12 h (240 mg, Study 1, Continuous BID, 240 mg, PWD 3360 mg, N=6, median (range)): 110 ng/mL | Cmax (240 mg, Study 1, Continuous BID, PWD 3360 mg, N=6, median (range)): 530 ng/mL | AUC (240 mg, Study 4 (Japanese patients), Continuous BID, 240 mg, PWD 3360 mg, N=7, median (range), read-out: AUCss(0–12 h)): 5220 ng·h/mL | concentration at 12 h (240 mg, Study 4 (Japanese patients), Continuous BID, 240 mg, PWD 3360 mg, N=7, median (range)): 170 ng/mL | AUC at 1 week [3]: 73000 ng·h/mL | Cmax [3]: 820 ng/mL | AUC (320 mg, Study 1, Continuous BID, 320 mg, PWD 4480 mg, N=12, median (range), read-out: AUCPWD): 82000 ng·h/mL | AUC (320 mg, Study 1, Continuous BID, 320 mg, PWD 4480 mg, N=12, median (range), read-out: AUCss(0–12 h)): 5860 ng·h/mL | concentration at 12 h (320 mg, Study 1, Continuous BID, 320 mg, PWD 4480 mg, N=12, median (range)): 200 ng/mL | Cmax (320 mg, Study 1, Continuous BID, PWD 4480 mg, N=12, median (range)): 870 ng/mL | AUC (320 mg, Study 4 (Japanese patients), Continuous BID, 320 mg, PWD 4480 mg, N=6, median (range), read-out: AUCss(0–12 h)): 6560 ng·h/mL | concentration at 12 h (320 mg, Study 4 (Japanese patients), Continuous BID, 320 mg, PWD 4480 mg, N=6, median (range)): 150 ng/mL | AUC at 1 week [4]: 91800 ng·h/mL | Cmax [4]: 1380 ng/mL | AUC (360 mg, Study 4 (Japanese patients), [4/3] BID, 360 mg, PWD 2880 mg, N=8, median (range), read-out: AUCss(0–12 h)): 6100 ng·h/mL | concentration at 12 h (360 mg, Study 4 (Japanese patients), [4/3] BID, 360 mg, PWD 2880 mg, N=8, median (range)): 210 ng/mL | AUC at 1 week [5]: 48800 ng·h/mL | Cmax [5]: 960 ng/mL | AUC (400 mg, Study 1, Continuous BID, 400 mg, PWD 5600 mg, N=11, median (range), read-out: AUCPWD): 81000 ng·h/mL | AUC (400 mg, Study 1, Continuous BID, 400 mg, PWD 5600 mg, N=11, median (range), read-out: AUCss(0–12 h)): 5790 ng·h/mL | concentration at 12 h (400 mg, Study 1, Continuous BID, 400 mg, PWD 5600 mg, N=11, median (range)): 190 ng/mL | Cmax (400 mg, Study 1, Continuous BID, PWD 5600 mg, N=11, median (range)): 900 ng/mL | AUC (400 mg, Study 4 (Japanese patients), Continuous BID, 400 mg, PWD 5600 mg, N=5, median (range), read-out: AUCss(0–12 h)): 7750 ng·h/mL | concentration at 12 h (400 mg, Study 4 (Japanese patients), Continuous BID, 400 mg, PWD 5600 mg, N=5, median (range)): 270 ng/mL | AUC at 1 week [6]: 109000 ng·h/mL | Cmax [6]: 1240 ng/mL | AUC (480 mg, OAK, [4/3] BID, 480 mg, PWD 3840 mg, N=30, median (range), read-out: AUCss(0–12 h)): 9750 ng·h/mL | concentration at 12 h (480 mg, OAK, [4/3] BID, 480 mg, PWD 3840 mg, N=30, median (range)): 330 ng/mL | AUC at 1 week [7]: 78000 ng·h/mL | Cmax [7]: 1580 ng/mL | AUC (480 mg, Study 1, Continuous BID, 480 mg, PWD 6720 mg, N=6, median (range), read-out: AUCPWD): 140000 ng·h/mL | AUC (480 mg, Study 1, Continuous BID, 480 mg, PWD 6720 mg, N=6, median (range), read-out: AUCss(0–12 h)): 9980 ng·h/mL | concentration at 12 h (480 mg, Study 1, Continuous BID, 480 mg, PWD 6720 mg, N=6, median (range)): 370 ng/mL | Cmax (480 mg, Study 1, Continuous BID, PWD 6720 mg, N=6, median (range)): 1620 ng/mL | AUC (480 mg, Study 1, [4/3] BID, 480 mg, PWD 3840 mg, N=127, median (range), read-out: AUCss(0–12 h)): 9690 ng·h/mL | concentration at 12 h (480 mg, Study 1, [4/3] BID, 480 mg, PWD 3840 mg, N=127, median (range)): 330 ng/mL | AUC at 1 week [8]: 77400 ng·h/mL | Cmax [8]: 1590 ng/mL | AUC (480 mg, Study 4 (Japanese patients), [4/3] BID, 480 mg, PWD 3840 mg, N=6, median (range), read-out: AUCss(0–12 h)): 10800 ng·h/mL | concentration at 12 h (480 mg, Study 4 (Japanese patients), [4/3] BID, 480 mg, PWD 3840 mg, N=6, median (range)): 290 ng/mL | AUC at 1 week [9]: 86800 ng·h/mL | Cmax [9]: 1880 ng/mL | AUC (600 mg, Study 1, Continuous BID, 600 mg, PWD 8400 mg, N=2, median (range), read-out: AUCss(0–12 h)): 14300 ng·h/mL | concentration at 12 h (600 mg, Study 1, Continuous BID, 600 mg, PWD 8400 mg, N=2, median (range)): 460 ng/mL | AUC at 1 week (600 mg, Study 1, Continuous BID, PWD 8400 mg, N=2, median (range)): 200000 ng·h/mL

Source: article PMC11953117 (Cancer Chemotherapy and Pharmacology, 2025)
